System: 556581-035-R-J1-PDC complex spheroid viability
Test: Anticancer human tumor 556581-035-R-J1-PDC patient-derived ovarian carcinoma cell line growth inhibition
Details: for IC50: curve of first compound; for viability, T/C: stronger effect = lower value
In short: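 Multicellular complex spheroids of tumor cells with human endothelial cells (HUVEC) and mesenchymal stem cells; the LSD1 inhibitor iadademstat was combined with standard-of-care or investigational agents. Top concentration at or near clinical Cmax, half-log dilutions; final DMSO ≤0.25%.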

[1] = second compound 0.1 µM, first compound 0.0316 µM
[2] = second compound 0.1 µM, first compound 0.1 µM
[3] = second compound 0.1 µM, first compound 0.316 µM
[4] = second compound 0.1 µM, first compound 1 µM
[5] = second compound 0.316 µM, first compound 0.0316 µM
[6] = second compound 0.316 µM, first compound 0.1 µM
[7] = second compound 0.316 µM, first compound 0.316 µM
[8] = second compound 0.316 µM, first compound 1 µM
[9] = second compound 1 µM, first compound 0.0316 µM
[10] = second compound 1 µM, first compound 0.1 µM
[11] = second compound 1 µM, first compound 0.316 µM
[12] = second compound 1 µM, first compound 1 µM
[13] = second compound 3.16 µM, first compound 0.0316 µM
[14] = second compound 3.16 µM, first compound 0.1 µM
[15] = second compound 3.16 µM, first compound 0.316 µM
[16] = second compound 3.16 µM, first compound 1 µM
[17] = second compound 10 µM, first compound 0.0316 µM
[18] = second compound 10 µM, first compound 0.1 µM
[19] = second compound 10 µM, first compound 0.316 µM
[20] = second compound 10 µM, first compound 1 µM
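Further: spheroids exposed to agents for seven days.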
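Wherever viability, T/C is given: 100% = DMSO vehicle control wells.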

## CC1COCCN1c1cc(C2(S(C)(=N)=O)CC2)nc(-c2ccnc3[nH]ccc23)n1 (stereo not given) + NC1CCC(NC2CC2c2ccccc2)CC1
Second compound 0.1 µM
  IC50: > 10000 nM
Second compound 0.316 µM
  IC50: > 10000 nM
Second compound 1 µM
  IC50: > 10000 nM
Second compound 3.16 µM
  IC50: > 10000 nM
Second compound 10 µM
  IC50: 6320 nM
[1]
  viability, T/C: 96.9%
[2]
  viability, T/C: 90.1%
[3]
  viability, T/C: 81.8%
[4]
  viability, T/C: 77.5%
Second compound 0.1 µM, first compound 3.16 µM
  viability, T/C: 71.2%
Second compound 0.1 µM, first compound 10 µM
  viability, T/C: 60.3%
[5]
  viability, T/C: 87.8%
[6]
  viability, T/C: 90.2%
[7]
  viability, T/C: 78.7%
[8]
  viability, T/C: 70%
Second compound 0.316 µM, first compound 3.16 µM
  viability, T/C: 55.6%
Second compound 0.316 µM, first compound 10 µM
  viability, T/C: 53.9%
[9]
  viability, T/C: 80%
[10]
  viability, T/C: 88.5%
[11]
  viability, T/C: 73.4%
[12]
  viability, T/C: 65.3%
Second compound 1 µM, first compound 3.16 µM
  viability, T/C: 58.1%
Second compound 1 µM, first compound 10 µM
  viability, T/C: 53.8%
[13]
  viability, T/C: 93.5%
[14]
  viability, T/C: 77.8%
[15]
  viability, T/C: 79.4%
[16]
  viability, T/C: 67.2%
Second compound 3.16 µM, first compound 3.16 µM
  viability, T/C: 55.8%
Second compound 3.16 µM, first compound 10 µM
  viability, T/C: 60.5%
[17]
  viability, T/C: 67.5%
[18]
  viability, T/C: 73.5%
[19]
  viability, T/C: 69%
[20]
  viability, T/C: 66.1%
Second compound 10 µM, first compound 3.16 µM
  viability, T/C: 48%
Second compound 10 µM, first compound 10 µM
  viability, T/C: 49.3%

## Nc1ncn(C2CC(O)C(CO)S2)c(=O)n1 (stereo not given) + NC1CCC(NC2CC2c2ccccc2)CC1
Second compound 0.1 µM
  IC50: 88.3 nM
Second compound 0.316 µM
  IC50: 98.8 nM
Second compound 1 µM
  IC50: 91.2 nM
Second compound 3.16 µM
  IC50: 85.2 nM
Second compound 10 µM
  IC50: 76.4 nM
Second compound 0.1 µM, first compound 0.000949 µM
  viability, T/C: 102%
Second compound 0.1 µM, first compound 0.003 µM
  viability, T/C: 93%
Second compound 0.1 µM, first compound 0.00949 µM
  viability, T/C: 99.5%
Second compound 0.1 µM, first compound 0.03 µM
  viability, T/C: 69.4%
Second compound 0.1 µM, first compound 0.0949 µM
  viability, T/C: 52.4%
Second compound 0.1 µM, first compound 0.3 µM
  viability, T/C: 41.5%
Second compound 0.316 µM, first compound 0.000949 µM
  viability, T/C: 91.5%
Second compound 0.316 µM, first compound 0.003 µM
  viability, T/C: 94.8%
Second compound 0.316 µM, first compound 0.00949 µM
  viability, T/C: 83.7%
Second compound 0.316 µM, first compound 0.03 µM
  viability, T/C: 73%
Second compound 0.316 µM, first compound 0.0949 µM
  viability, T/C: 49.9%
Second compound 0.316 µM, first compound 0.3 µM
  viability, T/C: 36.6%
Second compound 1 µM, first compound 0.000949 µM
  viability, T/C: 91.2%
Second compound 1 µM, first compound 0.003 µM
  viability, T/C: 93.3%
Second compound 1 µM, first compound 0.00949 µM
  viability, T/C: 79.6%
Second compound 1 µM, first compound 0.03 µM
  viability, T/C: 67%
Second compound 1 µM, first compound 0.0949 µM
  viability, T/C: 49.5%
Second compound 1 µM, first compound 0.3 µM
  viability, T/C: 39%
Second compound 3.16 µM, first compound 0.000949 µM
  viability, T/C: 96%
Second compound 3.16 µM, first compound 0.003 µM
  viability, T/C: 90%
Second compound 3.16 µM, first compound 0.00949 µM
  viability, T/C: 94.6%
Second compound 3.16 µM, first compound 0.03 µM
  viability, T/C: 67.8%
Second compound 3.16 µM, first compound 0.0949 µM
  viability, T/C: 51.1%
Second compound 3.16 µM, first compound 0.3 µM
  viability, T/C: 43.8%
Second compound 10 µM, first compound 0.000949 µM
  viability, T/C: 88.5%
Second compound 10 µM, first compound 0.003 µM
  viability, T/C: 83.2%
Second compound 10 µM, first compound 0.00949 µM
  viability, T/C: 71.9%
Second compound 10 µM, first compound 0.03 µM
  viability, T/C: 61.1%
Second compound 10 µM, first compound 0.0949 µM
  viability, T/C: 46%
Second compound 10 µM, first compound 0.3 µM
  viability, T/C: 42.1%

## O=C(C=Cn1cnc(-c2cc(C(F)(F)F)cc(C(F)(F)F)c2)n1)NNc1cnccn1 + NC1CCC(NC2CC2c2ccccc2)CC1
Second compound 0.1 µM
  IC50: 214 nM
Second compound 0.316 µM
  IC50: 138 nM
Second compound 1 µM
  IC50: 289 nM
Second compound 3.16 µM
  IC50: 254 nM
Second compound 10 µM
  IC50: 340 nM
Second compound 0.1 µM, first compound 0.00316 µM
  viability, T/C: 75.4%
Second compound 0.1 µM, first compound 0.01 µM
  viability, T/C: 78.2%
[1]
  viability, T/C: 78.6%
[2]
  viability, T/C: 59.9%
[3]
  viability, T/C: 44.8%
[4]
  viability, T/C: 24.6%
Second compound 0.316 µM, first compound 0.00316 µM
  viability, T/C: 81.8%
Second compound 0.316 µM, first compound 0.01 µM
  viability, T/C: 86.2%
[5]
  viability, T/C: 78.8%
[6]
  viability, T/C: 49%
[7]
  viability, T/C: 44.1%
[8]
  viability, T/C: 25.2%
Second compound 1 µM, first compound 0.00316 µM
  viability, T/C: 76%
Second compound 1 µM, first compound 0.01 µM
  viability, T/C: 74.7%
[9]
  viability, T/C: 77%
[10]
  viability, T/C: 68.2%
[11]
  viability, T/C: 48.6%
[12]
  viability, T/C: 20.1%
Second compound 3.16 µM, first compound 0.00316 µM
  viability, T/C: 75.8%
Second compound 3.16 µM, first compound 0.01 µM
  viability, T/C: 86.9%
[13]
  viability, T/C: 75.5%
[14]
  viability, T/C: 67.2%
[15]
  viability, T/C: 46.2%
[16]
  viability, T/C: 25.3%
Second compound 10 µM, first compound 0.00316 µM
  viability, T/C: 67.2%
Second compound 10 µM, first compound 0.01 µM
  viability, T/C: 71.7%
[17]
  viability, T/C: 66.6%
[18]
  viability, T/C: 61.8%
[19]
  viability, T/C: 53.5%
[20]
  viability, T/C: 17.3%
